For ten compounds, IC50 results are on record in patent US20100016335A1, “NOVEL AMINOPYRIDINE DERIVATIVES HAVING AURORA A SELECTIVE INHIBITORY ACTION” (priority 2006, published 2010).

The IC50 is the midpoint of a concentration-inhibition curve. A lower IC50 goes with inhibition by little substance.

Experiment [1] has as its target T1, GST-tagged human Aurora B(AurB)/His-tagged human INCENP complex proteins (Homo sapiens, UniProt Q96GD4).
T1 construct: GST; purchased Carna Biosciences, Inc
Put plainly: Aurora B inhibitory activity (Method A, IMAP assay kit). The class given is biochemical. As to conditions: 40 μM ATP, 25° C., 45 minutes. How it is done:
An assay development kit for IMAP (registered trademark) (Aurora B), purchased from Carna Biosciences, Inc., was used for phosphorylation reaction, and the phosphorylation of a substrate was detected using the IMAP technology. […] Using the same, the phosphorylation reaction was conducted in accordance with a partially revised protocol attached to the kit, and then the phosphorylation of the substrate was detected using the IMAP technology.
For the phosphorylation reaction, 384 well plate was used, and the reaction volume was 10 μl/well. The composition of the reaction buffer (assay buffer) is comprised of 20 mM of HEPES buffer (pH 7.4), 0.01% Tween-20, and 2 mM of dithiothreitol (DTT). Thereto, AurB/INCENP complex protein, 100 nM of the substrate, and 40 μM of ATP, and 1 mM of magnesium salt were added, and then the reaction was conducted at 25° C. for 45 minutes. Thereafter, in order to terminate and detect the reaction, 30 μl of the IMAP (registered trademark) binding reagent (IMAP Progressive Binding Reagent, R7284) that had been diluted (1:400) in the 1× IMAP binding buffer A (IMAP Progressive Binding Buffer A, 5× stock, R7282) was added to each well.
The compound to be tested was added to the reaction system such that a dilution series of the compound in DMSO was prepared, and then 0.5 μL of this solution was added for the testing to each well. Each control well was provided by adding 0.5 μL of DMSO to the well in place of the DMSO solution containing the compound to be tested.

For the next experiment, the target named is T2, human Aurora A (Homo sapiens, UniProt O14965).
T2 construct: His (N); made in house; host or cells: Escherichia coli BL21-CodonPlus(DE3)-RIL
T2 sequence (O14965 1-403): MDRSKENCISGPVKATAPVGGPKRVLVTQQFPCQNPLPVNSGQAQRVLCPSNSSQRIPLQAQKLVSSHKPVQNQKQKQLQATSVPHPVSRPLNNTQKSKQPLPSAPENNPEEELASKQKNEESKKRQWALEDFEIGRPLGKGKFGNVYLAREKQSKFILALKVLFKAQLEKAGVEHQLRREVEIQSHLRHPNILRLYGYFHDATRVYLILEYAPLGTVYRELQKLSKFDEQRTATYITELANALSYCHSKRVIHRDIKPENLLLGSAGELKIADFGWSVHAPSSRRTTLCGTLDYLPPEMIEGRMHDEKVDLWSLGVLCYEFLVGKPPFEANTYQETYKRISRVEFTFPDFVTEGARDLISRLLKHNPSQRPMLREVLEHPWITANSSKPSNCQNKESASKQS
Put plainly: Aurora A inhibitory activity (IMAP fluorescence polarization phosphorylation assay). As to conditions: 20 μM ATP, 30° C., 120 minutes. The class given is biochemical. The text has this: cDNA of N-terminal His-tagged human Aurora A was integrated into an expression vector, which was then highly expressed in Escherichia coli BL21-CodonPlus(DE3)-RIL cells. The Escherichia coli was harvested and lysed, and then the His-tagged human Aurora A protein was applied onto a nickel chelate column and eluted from the column with imidazole. The active fractions were desalted with a desalting column to give a purified enzyme.
For the phosphorylation reaction, the method by Upstate, Inc. [Kinase Profiler™ Assay Protocols] was referred to, and phosphorylation of the substrate was detected using IMAP® technology (Molecular Devices, Co. Ltd.) (Gaudet E W. et. al, J. Biomol. Screen, 8, 164-175 (2003)). Concretely, the phosphorylation reaction and the detection were carried out as follows:
The phosphorylation reaction was conducted using 384 well plate, and the reaction volume was 10 μl/well. The reaction buffer is comprised of 50 mM Tris-chloride buffer (pH 7.4), 15 mM magnesium acetate, and 0.2 mM ethylenediamine-N,N,N′,N′-tetraacetic acid (EDTA). Thereto, the purified Aurora A protein, 100 nM of the peptide substrate, and 20 μM of adenosine 5′-triphosphate (ATP) were added, and then the reaction was carried out at 30° C. for 120 minutes.
Thereafter, in order to terminate and detect the reaction, 30 μl of the IMAP (registered trademark) binding reagent (IMAP Progressive Binding Reagent, R7284) that had been diluted (1:400) in the 1×IMAP binding buffer A (IMAP Progressive Binding Buffer A, 5× stock, R7282) was added to each well. The solution stood still for 60 minutes in the dark, and then fluorescence polarization was measured using a high-end microplate reader (excitation wavelength: 485 nm; emission wavelength: 520 nm).
The compound to be tested was added to the reaction system such that a dilution series of the compound in dimethylsulfoxide (DMSO) was prepared, and then 0.5 μL of this solution was added for the testing to each well. Each control well was provided by adding 0.5 μL of DMSO to the well in place of the DMSO solution containing the compound to be tested.
On the technique in general: Fluorescence polarisation rises when a labelled molecule tumbles more slowly, as on binding a larger partner.

Each structure is given as a SMILES string. Structures can show the parent of a compound that is named as a salt.

T1 sequence (Q96GD4 whole entry): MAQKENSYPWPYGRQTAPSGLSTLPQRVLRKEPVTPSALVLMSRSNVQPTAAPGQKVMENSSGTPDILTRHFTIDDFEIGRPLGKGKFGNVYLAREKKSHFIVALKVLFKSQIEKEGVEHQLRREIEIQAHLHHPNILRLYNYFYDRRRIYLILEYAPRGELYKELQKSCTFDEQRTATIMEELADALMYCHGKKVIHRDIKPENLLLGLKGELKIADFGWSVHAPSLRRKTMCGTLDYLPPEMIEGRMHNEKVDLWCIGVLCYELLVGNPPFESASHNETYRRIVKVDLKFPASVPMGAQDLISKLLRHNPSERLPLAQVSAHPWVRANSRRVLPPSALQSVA
T1 sequence (Q9NQS7 803-916 partner limits assumed): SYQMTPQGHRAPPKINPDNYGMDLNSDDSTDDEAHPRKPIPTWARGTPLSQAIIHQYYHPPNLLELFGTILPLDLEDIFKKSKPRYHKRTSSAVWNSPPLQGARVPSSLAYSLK

For the compound `O=C(O)[C@]1(Cc2cccc(Nc3nccs3)n2)CC[C@@H](Oc2cccc(Cl)c2)CC1` [Example 5, trans-4-(3-chlorophenoxy)-1-((6-(1,3-thiazol-2-ylamino)pyridin-2-yl)methyl)cyclohexanecarboxylic acid hydrochloride], the IC50 in experiment [1] worked out at 130 nM; at human Aurora A, 0.12 nM.

As for `Cc1nnc([C@]2(Cc3cccc(Nc4cc[nH]n4)n3)CC[C@@H](Oc3cccc(Cl)c3F)CC2)o1` [Example 25, 6-((trans-4-(3-chloro-2-fluorophenoxy)-1-(5-methyl-1,3,4-oxadiazol-2-yl)cyclohexyl)methyl)-N-1H-pyrazol-3-ylpyridin-2-amine], the IC50 in experiment [1] is 690 nM; at human Aurora A it was 0.87 nM.

For the compound `Cc1cc(Nc2cc[nH]n2)nc(C[C@]2(c3n[nH]c(=O)o3)CC[C@H](Oc3cccc(Cl)c3F)CC2)n1` [Example 41, 5-(trans-4-(3-chloro-2-fluorophenoxy)-1-((4-methyl-6-(1H-pyrazol-3-ylamino)pyrimidin-2-yl)methyl)cyclohexyl)-1,3,4-oxadiazol-2(3H)-one trifluoroacetate], the values for the IC50 (in experiment [1]; on human Aurora A) were 110 nM and 0.18 nM, respectively.

For the compound `O=C(O)[C@]1(Cc2cccc(Nc3cc[nH]n3)n2)CC[C@@H](Oc2cccc(Cl)c2F)CC1` [Example 10, trans-4-(3-chloro-2-fluorophenoxy)-1-((6-(1H-pyrazol-3-ylamino)pyridin-2-yl)methyl)cyclohexanecarboxylic acid trifluoroacetate], the IC50 in experiment [1] was 200 nM; against human Aurora A it was 0.15 nM.

Consider `O=C(O)[C@]1(Cc2cc(Br)cc(Nc3nccs3)n2)CC[C@@H](Oc2cccc(Cl)c2F)CC1` [Example 40, trans-1-((4-bromo-6-(1,3-thiazol-2-ylamino)pyridin-2-yl)methyl)-4-(3-chloro-2-fluorophenoxy)cyclohexanecarboxylic acid hydrochloride], for which the values for the IC50 (in experiment [1]; against human Aurora A) were 95 nM and 0.09 nM, respectively.

For `Cc1nnc([C@]2(Cc3cccc(Nc4cc[nH]n4)n3)CC[C@@H](Oc3cccc(C(F)(F)F)c3F)CC2)s1` [Example 28, 6-((trans-4-(2-fluoro-3-(trifluoromethyl)phenoxy)-1-(5-methyl-1,3,4-thiadiazol-2-yl)cyclohexyl)methyl)-N-1H-pyrazol-3-ylpyridin-2-amine], the 50% inhibitory concentration (IC50) in experiment [1] amounted to 710 nM; against human Aurora A it was 3.5 nM.

`CC(=O)N[C@]1(Cc2cccc(Nc3nccs3)n2)CC[C@@H](Oc2cccc(Cl)c2F)CC1` [Example 19, N-(trans-4-(3-chloro-2-fluorophenoxy)-1-((6-(1,3-thiazol-2-ylamino)pyridin-2-yl)methyl)cyclohexyl)acetamide]: the IC50 in experiment [1] is 320 nM; at human Aurora A, 0.82 nM.

`N#C[C@]1(Cc2cccc(Nc3cc[nH]n3)n2)CC[C@@H](Oc2cccc(Cl)c2F)CC1` [Example 16, trans-4-(3-chloro-2-fluorophenoxy)-1-((6-(1H-pyrazol-3-ylamino)pyridin-2-yl)methyl)cyclohexanecarbonitrile]: the IC50 was over 1000 nM in experiment [1] and 1.6 nM against human Aurora A.

Turning to `N=c1[nH]nc([C@]2(Cc3cccc(Nc4cc[nH]n4)n3)CC[C@@H](Oc3cccc(C(F)(F)F)c3F)CC2)o1` [Example 21, 6-((trans-4-(2-fluoro-3-(trifluoromethyl)phenoxy)-1-(5-imino-4,5-dihydro-1,3,4-oxadiazol-2-yl)cyclohexyl)methyl)-N-1H-pyrazol-3-ylpyridin-2-amine trifluoroacetate], the concentration for half-maximal inhibition (IC50) in experiment [1] is over 1000 nM; at human Aurora A, 2.8 nM.

Regarding `CN(C)C(=O)[C@]1(Cc2cccc(Nc3cc[nH]n3)n2)CC[C@@H](Oc2cccc(Cl)c2F)CC1` [Example 13, trans-4-(3-chloro-2-fluorophenoxy)-N,N-dimethyl-1-((6-(1H-pyrazol-3-ylamino)pyridin-2-yl)methyl)cyclohexanecarboxamide], the IC50 was over 1000 nM in experiment [1] and 1.3 nM against human Aurora A.
